Entries after “also recorded” stand apart in the source; their conditions may differ.
How the values were obtained:
[1] = target: T1, Rat Acetylcholinesterase-induced β-Amyloid (Aβ1-40) Aggregation (Rattus norvegicus, UniProt P37136); experiment: Inhibition of AChE-induced β-amyloid peptide aggregation, ThT method; assay type: biochemical; conditions: test compounds 50 μM, B:A in μM, ThT fluorescence, 48 h
T1 sequence (P37136 32-614): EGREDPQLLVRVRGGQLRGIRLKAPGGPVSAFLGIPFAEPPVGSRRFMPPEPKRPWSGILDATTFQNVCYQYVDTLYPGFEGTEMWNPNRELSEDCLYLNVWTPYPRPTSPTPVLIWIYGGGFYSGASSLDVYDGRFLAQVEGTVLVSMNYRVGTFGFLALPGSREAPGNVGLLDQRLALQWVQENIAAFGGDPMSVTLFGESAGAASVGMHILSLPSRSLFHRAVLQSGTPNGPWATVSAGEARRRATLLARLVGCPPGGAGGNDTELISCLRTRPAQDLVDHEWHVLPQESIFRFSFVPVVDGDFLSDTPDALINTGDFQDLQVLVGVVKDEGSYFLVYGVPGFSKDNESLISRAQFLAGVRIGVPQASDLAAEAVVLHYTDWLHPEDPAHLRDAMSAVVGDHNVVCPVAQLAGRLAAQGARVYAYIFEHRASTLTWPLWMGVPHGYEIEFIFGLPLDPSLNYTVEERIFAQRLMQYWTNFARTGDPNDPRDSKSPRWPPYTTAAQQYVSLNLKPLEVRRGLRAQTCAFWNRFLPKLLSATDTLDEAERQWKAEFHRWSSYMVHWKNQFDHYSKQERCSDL
Method: (§1) Chemical reagents and starting materials were employed as above.
The effect of 3-OH-DBP (Urolithin B: B) and 3,8-(OH)2-DBP (Urolithin A: A) on the aggregation propensity of Aβ1-40 and (Thiofavin-T) ThT assay measurements were performed. […] Therefore, ThT assay was performed to study the effect of 3-(OH)-DBP (B) and 3,8-(OH)2-DBP (A) on the fibrillization of Aβ1-40.
(§2) The Aβ1-40 (10 μM and 30 μM) was incubated alone and independently with different concentrations of test compounds in the ratios shown in Tables 6 and 7, respectively.
(§3) 2 μL of different concentrations of Aβ40 (10 and 30 μM) was incubated with 16 μL of AChE in the presence of different ratio of test compounds to obtain final concentrations of 30 or 10 μM Aβ40, […], 10, 20, 50 μM test compounds and 2 μL assay buffer ([…]). The mixture was incubated at room temperature for 24 or 48 hr in dark (Time period may be changed according to experiment).
(§4) Fluorescence intensities were obtained for Aβ40 aggregation in the presence of inhibitors, in the absence of inhibitors and the blanks or solvent control. After incubation, 178 μL of 20 μM ThT was added.
(§5) The percentage inhibition of the AChE-induced Aβ1-40 aggregation was calculated as follows.
Preparation of Aβ40Stock: Aβ40 peptide (0.25 mg) (Calbiochem, Merck) was dissolved in hexafluoro-2-propanol (HFIP, 0.2 mL) and incubated at room temperature for 1 h. HFIP was then removed by the flow of nitrogen and further dried under vacuum. The concentration of Aβ40 peptide was determined by UV-vis spectrometry (Biotek USA; Plate reader) using a molar extinction coefficient of 1450 cm^−1 M^−1 at 276 nm. HFIP-treated A1340 was then dissolved in 10 mM PBS buffer to a concentration of […] at pH 7.4. The assay was performed in triplicate and in three independent runs.

Human recombinant AChE = target: T2, Human recombinant AChE (Homo sapiens, UniProt P22303); experiment: In-vitro human recombinant AChE inhibition assay, Ellman method; assay type: biochemical; conditions: Table 10
T2 construct: purchased Sigma Aldrich
From the text: In-vitro human recombinant AChE inhibition assay: Procedure described by Ellman et al. was used after some modification for AChE inhibition assay. Human recombinant AChE was purchased from Sigma Aldrich (St. Louis, Mo.). Acetylthiocholine iodide (ATCI), 5,5′-dithiobis (2-nitrobenzoic acid) (DTNB-Ellman's reagent) were purchased from Himedia Pvt. Ltd. (New Delhi, India). Donepezil was used as positive control groups. Tris-HCl buffer (pH 8) was used to perform the in-vitro assay.
Further, substrate i.e. ATCI (15 mM, 30 μL) was added and it was incubated for additional 30 min. Finally 160 μL (1.5 mM) of DTNB was added and the absorbance was recorded at 415 nm using Epoch microplate reader (BioTek). The IC50 value was calculated using absorbance obtained from the test and standard compounds. The assay was performed in triplicate and in three independent runs (see Equation 1).

[2] = target: T3, recombinant human Acetylcholinesterase-induced β-Amyloid (Aβ40) Aggregation (Homo sapiens, UniProt P22303); experiment: Inhibition of human recombinant AChE-induced β-amyloid peptide aggregation, ThT method; assay type: biochemical; conditions: test compounds 50 μM, B:A in μM, 48 h
T3 construct: purchased Sigma Aldrich
Method: as §2, §3, §4, §5, §1

[3] = target: T4, acetylcholinesterase activity in HIP homogenate (Rattus norvegicus, UniProt P37136); experiment: Acetylcholinesterase activity in hippocampal tissue, Amplex Red kit (Example 9C); assay type: in vivo, Male Wistar rats; conditions: p.o. 7 days: B 50, A 50, Donepezil 3, B:A 10:50 and 50:50 mg/kg, Shilajit 25 mg/kg b.i.d
T4 construct: The acetylcholinesterase activity in brain tissues was measured using Amplex red assay kit; from tissue; host or cells: rat hippocampus (brain tissue homogenate supernatant)
T4 sequence (P37136 32-614): T1 sequence (P37136 32-614)
Method: Drug solution was freshly prepared in 0.3% CMC and administered by oral gavage once a day, for a period of 7 days. Briefly, the whole experiment was conducted for 8 days. Scopolamine (1 mg/kg), a muscarinic receptor antagonist, was dissolved in normal saline (0.9% NaCl) and administered intraperitoneally 1 h after drugs administration on seventh day.
Sample preparation: The animals were killed by decapitation and the brain tissues were dissected out in ice-cold conditions and stored at −80° C. until use. Tissue was homogenized in 1.0 ml of 0.1M perchloric acid with a Potter-Elvehjem homogenizer. The homogenate was kept in the polypropylene tubes for 15 min after which 40 μl of 4M potassium acetate was added to adjust the pH to 4.0 followed by centrifugation for 15 min at 4000×g. Supernatant was used to estimate acetylcholine and AChE activities.
Spectrofluorometric assay of acetylcholinesterase activity: The acetylcholinesterase activity in brain tissues was measured using Amplex red assay kit (Molecular Probes, Inc., USA). An acetylcholinesterase standard curve was used in each experiment. Briefly, Begin the reactions by adding 0.1 ml of control (10 μM H2O2) and tissue homogenate were taken in two separate polypropylene tubes and then 0.1 ml working solution of 400 μM Amplex Red reagent containing 2 U/mL HRP, 0.2 U/mL choline oxidase and 100 μM acetylcholine were added to each tube. After incubation for 45 min, the fluorescence was recorded with the help of spectrofluorometer at 530 nm excitation and 590 nm emission wavelengths.
Statistical analyses: The results were expressed as means±Standard Error mean (SEM). The intergroup variation was measured by one-way ANOVA followed by Student-Newman-Keuls test. […] Statistical analysis was done by using Graph Pad prism version 5 (San Diego, Calif.). A level of p<0.05 was accepted as statistically significant.

T3 sequence (P22303 32-614): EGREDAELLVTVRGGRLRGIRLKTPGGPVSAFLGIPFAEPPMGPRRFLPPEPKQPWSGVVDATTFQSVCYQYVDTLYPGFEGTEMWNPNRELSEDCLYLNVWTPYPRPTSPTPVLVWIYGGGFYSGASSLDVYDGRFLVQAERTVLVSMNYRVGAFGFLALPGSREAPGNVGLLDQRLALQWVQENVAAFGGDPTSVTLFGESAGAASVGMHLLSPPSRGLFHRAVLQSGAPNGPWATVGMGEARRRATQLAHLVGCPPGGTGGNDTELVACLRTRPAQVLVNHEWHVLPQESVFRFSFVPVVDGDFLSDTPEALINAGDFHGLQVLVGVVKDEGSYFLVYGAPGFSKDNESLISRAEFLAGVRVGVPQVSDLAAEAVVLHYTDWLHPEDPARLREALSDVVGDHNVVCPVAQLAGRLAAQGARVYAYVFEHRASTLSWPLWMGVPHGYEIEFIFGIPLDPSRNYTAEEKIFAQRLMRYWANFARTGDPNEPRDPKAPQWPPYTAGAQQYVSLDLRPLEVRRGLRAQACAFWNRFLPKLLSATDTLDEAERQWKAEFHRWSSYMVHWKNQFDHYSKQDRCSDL
T2 sequence (P22303 32-614): as above

O=c1oc2cc(O)ccc2c2ccccc12 [Urolithin B, 3-hydroxy-dibenzo-alpha-pyrone]
inhibition of Aβ40 aggregation ([1]; Aβ40 30 μM): ~41%
inhibition of Aβ40 aggregation ([1]; amyloid beta 10 μM): ~50%
IC50 (Human recombinant AChE): 272.67 ± 42.11 µg/mL
inhibition of Aβ40 aggregation ([2]; Aβ40 30 μM): ~43%
inhibition of Aβ40 aggregation ([2]; amyloid beta 10 μM): ~46%
Scopolamine-induced increase in acetylcholinesterase activity in HIP homogenate [3]: attenuated the scopolamine induced increase acetylcholinesterase activity

O=c1oc2cc(O)ccc2c2ccc(O)cc12 [Urolithin A, 3,8-dihydroxy-dibenzo-alpha-pyrone]
inhibition of Aβ40 aggregation ([1]; Aβ40 30 μM): ~32%
inhibition of Aβ40 aggregation ([1]; amyloid beta 10 μM): ~35%
IC50 (Human recombinant AChE): 410.50 ± 38.52 µg/mL
inhibition of Aβ40 aggregation ([2]; Aβ40 30 μM): ~30%
inhibition of Aβ40 aggregation ([2]; amyloid beta 10 μM): ~34%
Scopolamine-induced increase in acetylcholinesterase activity in HIP homogenate ([3]; listed as 3,8-(OH)2-DBP (A)): attenuated the scopolamine induced increase acetylcholinesterase activity; also recorded: less effective than 3-OH-DBP (B) 50 mg/kg

Reference: patent US20200246308A1, “SYNERGISTIC COMBINATIONS OF UROLITHINS A AND B FOR IMPROVING COGNITIVE CAPACITY OR COGNITIVE FUNCTION” (Natreon, Inc., priority 2018, published 2020)
